Experiments:
[1] = test system: LOX; assay: Antitumor effect in human cancer cell line subcutaneously transplanted model (LOX); type: in vivo, nude mouse
Source text: (§1) Human cancer cell lines A375 (purchased from Dainippon Pharma Co., Ltd.), SEKI, HMV-1 (these two lines were purchased from JCRB cell bank, National Institute of Biomedical Innovation), FEM (granted from Dr. Fodstad, The Norwegian Radiumhospital Research Foundation), LOX (purchased from AntiCancer), AZ-521 (purchased from Japan Health Science Foundation), MDA-MB-468, DLD-1, HCT116, SW620, PC-3, DU145, AsPC-1, H526, MDA-MB-231, SK-Mel-2, Lovo and A431 (these 12 lines were purchased from ATCC) were cultured with RPMI1640 (containing 10% FBS) in a 5% CO2 incubator until they reached about 80% confluence. After culturing, cells from each line w ere recovered with trypsin-EDTA by conventional procedures. The cells were suspended in phosphate buffer solution to prepare a cell suspension of 1×10^8 cells/ml or 5×10^7 cells/ml. Subsequently, 0.1 ml of the cell suspension was subcutaneously transplanted on the lateral side of each nude mouse. After transplantation, when the tumor volume reached about 100-200 mm^3, administration of 4-(3-chloro-4-(cyclopropylaminocarbonyl)-aminophenoxy)-7-methoxy-6-quinolinecarboxamide was started (100 mg/kg; twice a day; one week; oral administration). […] The major axis and minor axis of tumor were measured with a Degimatic Caliper (Mitsutoyo). Then, tumor volume and ΔT/C were calculated using the following formulas: […]

[2] = test system: FEM; assay: Antitumor effect in human cancer cell line subcutaneously transplanted model (FEM); type: in vivo, nude mouse
Source text: as §1

[3] = test system: H526; assay: Example 3 antitumor effect, relative tumor volume, subcutaneously transplanted model (H526); type: in vivo, nude mouse; settings: FIG. 2
Protocol: (§2) Human cancer cell lines AsPC-1 and H526 (both strains were purchased from ATCC) were cultured with RPMI1640 (containing 10% FBS) in a 5% CO2 incubator until they reached about 80% confluence. After culturing, cells from each strain were recovered with trypsin-EDTA by conventional procedures. The cells were suspended in phosphate buffer to prepare a cell suspension of 5×10^7 cells/ml. Subsequently, 0.1 ml of the cell suspension was subcutaneously transplanted on the lateral side of each nude mouse. After transplantation, when the tumor volume reached about 50-200 mm^3, administration of 5-(5-fluoro-2-oxo-1,2-dihydroindole-3-ylidenemethyl)-2,4-dimethyl-1H-pyrrole-3-carboxylic acid (2-diethylaminoethyl)amide (100 mg/kg, once a day, one week, oral administration) was started. The 5-(5-fluoro-2-oxo-1,2-dihydroindole-3-ylidenemethyl)-2,4-dimethyl-1H-pyrrole-3-carboxylic acid (2-diethylaminoethyl)amide was prepared based on the disclosure in WO 01/060814. The major axis and minor axis of tumor were measured with a Degimatic Caliper (Mitsutoyo). Then, tumor volume and relative tumor volume were calculated using the following formulas:
(§3) Tumor volume(TV)=tumor major axis(mm)×tumor minor axis^2(mm^2)/2
(§4) Relative tumor volume(RTV)=tumor volume on the measurement day/tumor volume on the starting day of administration

[4] = test system: AZ-521; assay: Antitumor effect in human cancer cell line subcutaneously transplanted model (AZ-521); type: in vivo, nude mouse
Source text: as §1

[5] = test system: AsPC-1; assay: Example 3 antitumor effect, relative tumor volume, subcutaneously transplanted model (AsPC-1); type: in vivo, nude mouse; settings: FIG. 2
Protocol: as §2, §3, §4

[6] = test system: AsPC-1; assay: Antitumor effect in human cancer cell line subcutaneously transplanted model (AsPC-1); type: in vivo, nude mouse
Source text: as §1

[7] = test system: HCT116; assay: Antitumor effect in human cancer cell line subcutaneously transplanted model (HCT116); type: in vivo, nude mouse
Source text: as §1

[8] = test system: A431; assay: Antitumor effect in human cancer cell line subcutaneously transplanted model (A431); type: in vivo, nude mouse
Source text: as §1

[9] = test system: SW620; assay: Antitumor effect in human cancer cell line subcutaneously transplanted model (SW620); type: in vivo, nude mouse
Source text: as §1

[10] = test system: A375; assay: Antitumor effect in human cancer cell line subcutaneously transplanted model (A375); type: in vivo, nude mouse
Source text: as §1

[11] = test system: DU145; assay: Antitumor effect in human cancer cell line subcutaneously transplanted model (DU145); type: in vivo, nude mouse
Source text: as §1

[12] = test system: H526; assay: Antitumor effect in human cancer cell line subcutaneously transplanted model (H526); type: in vivo, nude mouse
Source text: as §1

[13] = test system: PC-3; assay: Antitumor effect in human cancer cell line subcutaneously transplanted model (PC-3); type: in vivo, nude mouse
Source text: as §1

[14] = test system: SEKI; assay: Antitumor effect in human cancer cell line subcutaneously transplanted model (SEKI); type: in vivo, nude mouse
Source text: as §1

[15] = test system: MDA-MB-468; assay: Antitumor effect in human cancer cell line subcutaneously transplanted model (MDA-MB-468); type: in vivo, nude mouse
Source text: as §1

[16] = test system: SK-Mel-2; assay: Antitumor effect in human cancer cell line subcutaneously transplanted model (SK-Mel-2); type: in vivo, nude mouse
Source text: as §1

[17] = test system: HMV-1; assay: Antitumor effect in human cancer cell line subcutaneously transplanted model (HMV-1); type: in vivo, nude mouse
Source text: as §1

[18] = test system: DLD-1; assay: Antitumor effect in human cancer cell line subcutaneously transplanted model (DLD-1); type: in vivo, nude mouse
Source text: as §1

[19] = test system: Lovo; assay: Antitumor effect in human cancer cell line subcutaneously transplanted model (Lovo); type: in vivo, nude mouse
Source text: as §1

[20] = test system: MDA-MB-231; assay: Antitumor effect in human cancer cell line subcutaneously transplanted model (MDA-MB-231); type: in vivo, nude mouse
Source text: as §1

[21] = test system: colorectal cancer; settings: clinical trials; cited from earlier work
[22] = Melanoma, 100 mg/kg twice a day, one week, oral, day 8 vs day 1
[23] = class by intensity of antitumor effect (ΔT/C)
[24] = Compound 1 administration group
[25] = Compound 2 administration group, 100 mg/kg once a day, one week, oral

COc1cc2nccc(Oc3ccc(NC(=O)NC4CC4)c(Cl)c3)c2cc1C(N)=O [Compound 1, 4-(3-chloro-4-(cyclopropylaminocarbonyl)aminophenoxy)-7-methoxy-6-quinolinecarboxamide]
ΔT/C [1, 22]: 42%
Classification [1, 23]: Proliferation line (cancer cell lines which showed 10%<ΔT/C were classified as proliferation lines)
ΔT/C [2, 22]: 55%
Classification [2, 23]: Proliferation line (cancer cell lines which showed 10%<ΔT/C were classified as proliferation lines)
tumor proliferation [3, 24]: delayed
ΔT/C ([4]; AZ-521, Gastric cancer, 100 mg/kg twice a day, one week, oral, day 8 vs day 1): −57%
Classification ([4]; AZ-521, class by intensity of antitumor effect (ΔT/C)): Shrinkage line (Cancer cell lines which showed ΔT/C<−30% were classified as shrinkage lines)
tumor proliferation [5, 24]: rested
ΔT/C ([6]; AsPC-1, Pancreatic cancer, 100 mg/kg twice a day, one week, oral, day 8 vs day 1): −8%
Classification ([6]; AsPC-1, class by intensity of antitumor effect (ΔT/C)): Rest line (cancer cell lines which showed −30%<ΔT/C<10% were classified as rest lines)
ΔT/C ([7]; HCT116, Large bowel cancer, 100 mg/kg twice a day, one week, oral, day 8 vs day 1): 17%
Classification ([7]; HCT116, class by intensity of antitumor effect (ΔT/C)): Proliferation line (cancer cell lines which showed 10%<ΔT/C were classified as proliferation lines)
ΔT/C ([8]; A431, Epidermoid carcinoma, 100 mg/kg twice a day, one week, oral, day 8 vs day 1): −8%
Classification ([8]; A431, class by intensity of antitumor effect (ΔT/C)): Rest line (cancer cell lines which showed −30%<ΔT/C<10% were classified as rest lines)
ΔT/C ([9]; SW620, Large bowel cancer, 100 mg/kg twice a day, one week, oral, day 8 vs day 1): 22%
Classification ([9]; SW620, class by intensity of antitumor effect (ΔT/C)): Proliferation line (cancer cell lines which showed 10%<ΔT/C were classified as proliferation lines)
ΔT/C ([10]; A375, Melanoma, 100 mg/kg twice a day, one week, oral, day 8 vs day 1): 26%
Classification ([10]; A375, class by intensity of antitumor effect (ΔT/C)): Proliferation line (cancer cell lines which showed 10%<ΔT/C were classified as proliferation lines)
ΔT/C ([11]; DU145, Prostate cancer, 100 mg/kg twice a day, one week, oral, day 8 vs day 1): −60%
Classification ([11]; DU145, class by intensity of antitumor effect (ΔT/C)): Shrinkage line (Cancer cell lines which showed ΔT/C<−30% were classified as shrinkage lines)
ΔT/C ([12]; H526, Small cell lung cancer, 100 mg/kg twice a day, one week, oral, day 8 vs day 1): 22%
Classification ([12]; H526, class by intensity of antitumor effect (ΔT/C)): Proliferation line (cancer cell lines which showed 10%<ΔT/C were classified as proliferation lines)
ΔT/C ([13]; PC-3, Prostate cancer, 100 mg/kg twice a day, one week, oral, day 8 vs day 1): 54%
Classification ([13]; PC-3, class by intensity of antitumor effect (ΔT/C)): Proliferation line (cancer cell lines which showed 10%<ΔT/C were classified as proliferation lines)
ΔT/C [14, 22]: 110%
Classification [14, 23]: Proliferation line (cancer cell lines which showed 10%<ΔT/C were classified as proliferation lines)
ΔT/C ([15]; MDA-MB-468, Breast cancer, 100 mg/kg twice a day, one week, oral, day 8 vs day 1): −53%
Classification ([15]; MDA-MB-468, class by intensity of antitumor effect (ΔT/C)): Shrinkage line (Cancer cell lines which showed ΔT/C<−30% were classified as shrinkage lines)
ΔT/C ([16]; SK-Mel-2, Melanoma, 100 mg/kg twice a day, one week, oral, day 8 vs day 1): −2.5%
Classification ([16]; SK-Mel-2, class by intensity of antitumor effect (ΔT/C)): Rest line (cancer cell lines which showed −30%<ΔT/C<10% were classified as rest lines)
ΔT/C ([17]; HMV-1, Melanoma, 100 mg/kg twice a day, one week, oral, day 8 vs day 1): 19%
Classification ([17]; HMV-1, class by intensity of antitumor effect (ΔT/C)): Proliferation line (cancer cell lines which showed 10%<ΔT/C were classified as proliferation lines)
ΔT/C ([18]; DLD-1, Large bowel cancer, 100 mg/kg twice a day, one week, oral, day 8 vs day 1): 52%
Classification ([18]; DLD-1, class by intensity of antitumor effect (ΔT/C)): Proliferation line (cancer cell lines which showed 10%<ΔT/C were classified as proliferation lines)
ΔT/C ([19]; Large bowel cancer, 100 mg/kg twice a day, one week, oral, day 8 vs day 1): −11%
Classification [19, 23]: Rest line (cancer cell lines which showed −30%<ΔT/C<10% were classified as rest lines)
ΔT/C ([20]; MDA-MB-231, Breast cancer, 100 mg/kg twice a day, one week, oral, day 8 vs day 1): −33%
Classification ([20]; MDA-MB-231, class by intensity of antitumor effect (ΔT/C)): Shrinkage line (Cancer cell lines which showed ΔT/C<−30% were classified as shrinkage lines)

CCN(CC)CCNC(=O)c1c(C)[nH]c(/C=C2\C(=O)Nc3ccc(F)cc32)c1C [Compound 2, 5-(5-fluoro-2-oxo-1,2-dihydroindole-3-ylidenemethyl)-2,4-dimethyl-1H-pyrrole-3-carboxylic acid (2-diethylaminoethyl)amide, reference compound]
tumor proliferation [3, 25]: delayed
tumor proliferation [5, 25]: rested

bevacizumab: human anti-VEGF monoclonal antibody sold by Genentech as Avastin
antitumor effect [21]: shown an antitumor effect

Source: patent US20100105031A1, “METHOD FOR PREDICTION OF THE EFFICACY OF VASCULARIZATION INHIBITOR” (Esai R & D Management Co., Ltd., priority 2005, published 2010)
